Patent publication US12662518B2, “Engineered peptide and peptide mimetic compositions and methods” (The Wistar Institute of Anatomy and Biology, priority 2019, dated 2026)
Entries after “also recorded” stand apart in the source; their conditions may differ. Ends that are not written are not given here. Peptide text beside a SMILES is read from it.

What was measured:
PC3 cells [1] = test: mitochondrial membrane potential in tumor cells, TMRE, time-lapse videomicroscopy and flow cytometry; assay type: cell-based, human; details: 10 μM, single-cell time-lapse videomicroscopy or whole cell population
Description: Analysis of mitochondrial membrane potential. […] In some experiments, PC3 cells were treated with cell-permeable scrambled peptide or cell-permeable MFF #8-11 peptide, washed three times in PBS, pH 7.4, and analyzed on a FACSCalibur flow cytometer, with the TMRE signal as FL1. Intact cells were gated in the FSC/SSC plot to exclude small debris. Cells treated with 20 μM FCCP 10 min prior to TMRE staining were used as a negative control. The resulting FL1 data were plotted on a histogram. For quantification of membrane potential of purified mitochondria, mitochondria isolated from PC3 cells (50 μg) were suspended in 400 μl of SB buffer (0.2 M sucrose, 10 mM Tris-MOPS, pH 7.4, 5 mM succinate, 1 mM sodium phosphate, 10 μM EGTA-Tris, 2 μM rotenone). […] After two washes with SB buffer, mitochondria were recovered by centrifugation at 6000×g for 10 min, suspended in 100 μl of SB buffer and mitochondrial membrane potential was quantified on a florescence microplate reader (Ex/Em=535/595 nm, Beckman Coulter). […]
For time-lapse videomicroscopy, PC3 cells (2×10^4) growing in high optical-quality glass bottom chambered 8-well cell culture slides (MatTek Corporation) were stained with 100 nM TMRE (Abcam) and 50 nM MitoTracker Green FM (Life Technologies) for 20 min. […] A minimum of 100 cells were analyzed from 2 independent experiments. […]

PC3 cells [2] = test: cytochrome c release from tumor cells, Western blotting; assay type: cell-based, human; details: supernatants vs mitochondrial extracts
[3] = system: prostate cancer cell types (LNCaP, C4-2B, PC3, DU145); test: cell death of prostate cancer cells, CellTox reactivity; assay type: cell-based, human; details: for tumor cell death / viability: PC3 / prostate cancer cells, 0-50 μM
Description: (§2) Cell death and apoptosis. […] The various cell-permeable MFF peptides were examined for induction of cytotoxicity using a CellTOX Green cytotoxicity assay kit (Promega). Briefly, 10^4 normal or tumor cells in 100 μl complete medium were plated on white opaque 96-well plate. […] Lysis Solution in the assay kit was used as cytotoxicity control (100% cell death) and treatment with PBS was used as a control for 100% cell viability.

glioblastoma LN229 cells = test: cell death of glioblastoma cells; assay type: cell-based, human
Text: (§1) Cell death and apoptosis.

DU145 or PC3 cells = test: release of HMGB1 and cyclophilin A from tumor cells, Western blotting; assay type: cell-based, human; details: marker of necrosis
[4] = system: immortalized wild type (WT) mouse embryonic fibroblasts (MEF); test: cell death of wild type MEF; assay type: cell-based; details: 10-50 μM
Text: as §1

CypD^−/− MEF = test: cell death of CypD-/- MEF; assay type: cell-based, mouse; details: 25 μM
Text: as §1

[5] = system: drug-sensitive and drug-resistant melanoma cells; details: isogenic pairs, CellTox reactivity
Description: as §2

[6] = system: normal prostatic epithelial cells (BPH-1); test: cell death of normal prostatic epithelial cells; assay type: cell-based, human; details: 0-40 μM, 2 h
Text: as §1

[7] = system: normal human foreskin fibroblasts (HFF); test: cell death of normal fibroblasts; assay type: cell-based; details: 0-40 μM
Text: as §1

[8] = system: patient-derived glioblastoma (GBM) neurospheres; test: patient-derived glioblastoma (GBM) neurospheres, calcein / To-Pro viability; assay type: cell-based; details: 10-50 μM, 1, 3 or 24 h; scrambled 50 μM
Text: Glioblastoma (GBM) neurospheres. Primary, patient-derived GBM neurospheres were isolated and maintained in culture essentially as described (Senft, D. & Ronai, Z. A. Regulators of mitochondrial dynamics in cancer. Curr Opin Cell Biol 39, 43-52 (2016)). Tissue samples were obtained from chemotherapy- or radiotherapy-naïve patients with confirmed histological diagnosis of WHO grade IV glioma (GBM) undergoing treatment at the Neurosurgery Division of Fondazione IRCCS Ca' Granda Ospedale Maggiore Policlinco (Milan, Italy). Written informed consent was obtained from all patients. Neurospheres were cyto-spinned on charged slides (Thermo Scientific, Waltham, Mass.) and treated with cell-permeable scrambled peptide (50 μM) or cell-permeable retro-inverso D-enantiomer MFF peptide (10-50 μM) for up to 24 h. Control-normalized changes in cell viability under the various conditions were determined by the ratio of Calcein (alive) and To-Pro (dead) staining and fluorescence microscopy (Eclipse Ti-E, Nikon Instruments, Florence, Italy).

[9] = system: patient-derived NSCLC organoids; test: patient-derived NSCLC organoids, Ki-67 and cleaved caspase-3 immunohistochemistry; assay type: cell-based, human; details: 50-100 μM, 24 h
[10] = system: patient-derived breast adenocarcinoma organoids; test: patient-derived breast adenocarcinoma organoids, Ki-67 and cleaved caspase-3 immunohistochemistry; assay type: cell-based, human; details: 50-100 μM, 24 h
[11] = system: NSCLC A549 and H460 or breast adenocarcinoma MDA-231 and MCF-7 cells; test: NSCLC and breast adenocarcinoma cell lines, TMRE flow cytometry and CellTox cell death; assay type: cell-based, human; details: A549, H460, MDA-231, MCF-7 cells, 10-25 μM

Row | Compound | loss of mitochondrial membrane potential (PC3 cells [1]) | cytochrome c release from tumor cells (PC3 cells [2]) | tumor cell death / viability [3] | IC50 ([3]; prostate cancer cell types, read-out: IC50, cell killing) [µM] | IC50 (glioblastoma LN229 cells; glioblastoma, read-out: IC50, cell killing) [µM] | HMGB1 release from tumor cells (DU145 or PC3 cells) | cyclophilin A (CypA) release from tumor cells (DU145 or PC3 cells) | cell death of WT MEF [4] | cell death of CypD^−/− MEF (CypD^−/− MEF) | cell death of drug-sensitive and drug-resistant melanoma cells [5] | killing of GBM LN229 cells (glioblastoma LN229 cells; 0-40 μM) | cell death of normal prostatic epithelial cells [6] | cell death of normal fibroblasts (HFF) [7] | cytotoxicity for patient-derived GBM neurospheres (loss of cell viability) [8] | apoptosis / cell death markers (cleaved caspase-3^+ cells), NSCLC organoids [9] | cell proliferation (Ki-67^+ cells), NSCLC organoids [9] | apoptosis / cell death markers (cleaved caspase-3^+ cells), breast adenocarcinoma organoids [10] | cell proliferation (Ki-67^+ cells), breast adenocarcinoma organoids [10] | tumor cell death ([11]; CellTox) | mitochondrial membrane potential ([11]; TMRE)
1 | CC[C@H](C)[C@H](NC(=O)CNC(=O)[C@H](CCCNC(=N)N)NC(=O)[C@H](C)NC(=O)[C@H](CO)NC(=O)[C@H](CCCCN)NC(=O)[C@H](CCSC)NC(=O)[C@H](CCCNC(=N)N)NC(=O)[C@H](CCCNC(=N)N)NC(=O)[C@H](CC(N)=O)NC(=O)[C@H](CCC(N)=O)NC(=O)[C@H](Cc1ccccc1)NC(=O)[C@H](Cc1c[nH]c2ccccc12)NC(=O)[C@@H](NC(=O)[C@H](CCCCN)NC(=O)[C@@H](NC(=O)[C@H](CCC(N)=O)NC(=O)[C@H](CCCNC(=N)N)NC(=O)CCCCCNC(=O)CCCC[C@@H]1SC[C@@H]2NC(=O)N[C@@H]21)[C@@H](C)CC)[C@@H](C)CC)C(=O)N[C@@H](CC(C)C)C(=O)N[C@@H](CO)C(=O)N[C@@H](CC(C)C)C(=O)N[C@H](C(=O)N[C@@H](CCC(N)=O)C(=O)N[C@@H](CO)C(=O)N[C@@H](CO)C(=O)N[C@H](C(=O)N[C@@H](CCCNC(=N)N)C(=O)N[C@@H](CCCNC(=N)N)C(=O)N[C@@H](C)C(=O)N[C@@H](Cc1ccc(O)cc1)C(=O)N[C@@H](CCC(N)=O)C(=O)N[C@@H](CCC(N)=O)C(=O)N[C@H](C(=O)N[C@@H](CC(C)C)C(=O)O)[C@@H](C)CC)[C@@H](C)O)[C@@H](C)CC [cell-permeable MFF peptide #8-11] (HELM PEPTIDE1{[O=C1N[C@H]2[C@H](CS[C@H]2CCCCC(=O)[*:2])N1].[O=C(CCCCCN[*:1])[*:2]].R.Q.I.K.I.W.F.Q.N.R.R.M.K.S.A.R.G.I.L.S.L.I.Q.S.S.T.R.R.A.Y.Q.Q.I.L}$$$$V2.0; N-terminus and C-terminus assumed) | induced acute loss of mitochondrial membrane potential; also recorded: induced sudden loss of mitochondrial membrane potential | induced cytochrome c release | efficiently killed tumor cells in a time- and concentration-dependent manner | ~10 | ~10 | induced the release of HMGB1 and cyclophilin A (CypA) | induced the release of HMGB1 and cyclophilin A (CypA) | killed immortalized wild type (WT) mouse embryonic fibroblasts (MEF) in a concentration-dependent manner; also recorded: efficiently killed WT MEF in a time- and concentration-dependent response | abolished cell death | comparably killed | – | – | – | – | – | – | – | – | – | –
2 | cell-permeable scrambled peptide: cell-permeable control scrambled peptide #8-11 (SEQ ID NO: 22) (SSQLRYLARSQRITIQLIAGS; also: cell-permeable moiety) | not | – | did not kill normal or prostate cancer cells | – | – | had no effect on HMGB1 release; also recorded: did not induce HMGB1 release | – | – | – | – | did not cause LN229 cell killing | did not kill normal or prostate cancer cells | did not kill normal or prostate cancer cells | not | had no effect | had no effect | had no effect | had no effect | had no effect | had no effect
